Calls of active or inactive are those of the source. No rule for the calls is given here.
Tested on: rodent lifetime carcinogenesis bioassay, tumor incidence TD50
Experiment: chronic cancer bioassays in animals – CPDB, compiled studies (AID 1745844)

SMILES: NC(=O)N(CCO)N=O
- TD50 (mouse, strain Swiss, females, in drinking water, site: all sites, lesion: lymphoma, dosed 50 weeks, study length 51 weeks): 0.603 mg/kg/day
- TD50 (mouse, strain Swiss, females, in drinking water, site: lung, lesion: adenoma, dosed 50 weeks, study length 51 weeks): 1.97 mg/kg/day
- TD50 (mouse, strain Swiss, males, in drinking water, site: all sites, lesion: lymphoma, dosed 50 weeks, study length 51 weeks): 1.27 mg/kg/day
- TD50 (mouse, strain Swiss, males, in drinking water, site: any site (literature study), lesion: one or several types, types not named, dosed 50 weeks, study length 51 weeks): 0.353 mg/kg/day
- TD50 (mouse, strain Swiss, males, in drinking water, site: lung, lesion: adenoma, dosed 50 weeks, study length 51 weeks): 0.382 mg/kg/day
- TD50 (rat, strain Fischer 344, females, by gavage, site: Zymbal's gland, lesion: carcinoma, dosed 37 weeks, study length 60 weeks): 3.15 mg/kg/day
- TD50 (rat, strain Fischer 344, females, by gavage, site: colon, lesion: adenoma, dosed 37 weeks, study length 60 weeks): 1.53 mg/kg/day
- TD50 (rat, strain Fischer 344, females, by gavage, site: forestomach, lesion: squamous-cell carcinoma, dosed 37 weeks, study length 60 weeks): 3.15 mg/kg/day
- TD50 (rat, strain Fischer 344, females, by gavage, site: mammary gland, lesion: adenocarcinoma, dosed 37 weeks, study length 60 weeks): 0.452 mg/kg/day
- TD50 (rat, strain Fischer 344, males, by gavage, site: Zymbal's gland, lesion: carcinoma, dosed 37 weeks, study length 55 weeks): 0.879 mg/kg/day
- TD50 (rat, strain Fischer 344, males, by gavage, site: Zymbal's gland, lesion: several types, types named in the paper, dosed 37 weeks, study length 55 weeks): 0.568 mg/kg/day
- TD50 (rat, strain Fischer 344, males, by gavage, site: colon, lesion: adenocarcinoma, dosed 37 weeks, study length 55 weeks): 0.983 mg/kg/day
- TD50 (rat, strain Fischer 344, males, by gavage, site: colon, lesion: several types, types named in the paper, dosed 37 weeks, study length 55 weeks): 0.24 mg/kg/day
- TD50 (rat, strain Fischer 344, males, by gavage, site: forestomach, lesion: several types, types named in the paper, dosed 37 weeks, study length 55 weeks): 0.203 mg/kg/day
- TD50 (rat, strain Fischer 344, males, by gavage, site: forestomach, lesion: squamous-cell carcinoma, dosed 37 weeks, study length 55 weeks): 0.637 mg/kg/day
- TD50 (rat, strain Fischer 344, males, by gavage, site: lung, lesion: malignant tumor, dosed 37 weeks, study length 55 weeks): 0.602 mg/kg/day
- TD50 (rat, strain Fischer 344, males, by gavage, site: lung, lesion: several types, types named in the paper, dosed 37 weeks, study length 55 weeks): 0.0776 mg/kg/day
- TD50 (rat, strain MRC-Wistar, females, in drinking water, site: all sites, lesion: B-cell lymphoma, dosed 39 weeks, study length 85 weeks): 3.16 mg/kg/day
- TD50 (rat, strain MRC-Wistar, females, in drinking water, site: all sites, lesion: myelocytic leukemia, dosed 39 weeks, study length 85 weeks): 3.16 mg/kg/day (inactive)
- TD50 (rat, strain MRC-Wistar, females, in drinking water, site: any site (literature study), lesion: one or several types, types not named, dosed 39 weeks, study length 85 weeks): 0.32 mg/kg/day
- TD50 (rat, strain MRC-Wistar, females, in drinking water, site: liver, lesion: one or several types, types not named, dosed 39 weeks, study length 85 weeks): 10 mg/kg/day
- TD50 (rat, strain MRC-Wistar, males, in drinking water, site: all sites, lesion: B-cell lymphoma, dosed 39 weeks, study length 85 weeks): 1.56 mg/kg/day
- TD50 (rat, strain MRC-Wistar, males, in drinking water, site: all sites, lesion: lymphocytic lymphoma, dosed 52 weeks, study length 70 weeks): 2.03 mg/kg/day
- TD50 (rat, strain MRC-Wistar, males, in drinking water, site: all sites, lesion: malignant lymphoma, dosed 52 weeks, study length 70 weeks): 2.03 mg/kg/day
- TD50 (rat, strain MRC-Wistar, males, in drinking water, site: all sites, lesion: myelocytic leukemia, dosed 39 weeks, study length 85 weeks): 2.02 mg/kg/day (inactive)
- TD50 (rat, strain MRC-Wistar, males, in drinking water, site: any site (literature study), lesion: one or several types, types not named, dosed 39 weeks, study length 85 weeks): 0.195 mg/kg/day
- TD50 (rat, strain MRC-Wistar, males, in drinking water, site: any site (literature study), lesion: several types, types named in the paper, dosed 52 weeks, study length 70 weeks): 0.36 mg/kg/day
- TD50 (rat, strain MRC-Wistar, males, in drinking water, site: bone, lesion: osteosarcoma, dosed 39 weeks, study length 85 weeks): 1.56 mg/kg/day
- TD50 (rat, strain MRC-Wistar, males, in drinking water, site: bone, lesion: osteosarcoma, dosed 52 weeks, study length 70 weeks): 1.52 mg/kg/day
- TD50 (rat, strain MRC-Wistar, males, in drinking water, site: liver, lesion: one or several types, types not named, dosed 39 weeks, study length 85 weeks): 2.77 mg/kg/day
- TD50 (rat, strain Wistar, males, in drinking water, site: all sites, lesion: B-cell lymphoma, dosed 90 weeks, study length 90 weeks): 15.9 mg/kg/day
- TD50 (rat, strain Wistar, males, in drinking water, site: all sites, lesion: myelocytic leukemia, dosed 90 weeks, study length 90 weeks): 3.66 mg/kg/day
- TD50 (rat, strain Wistar, males, in drinking water, site: any site (literature study), lesion: one or several types, types not named, dosed 90 weeks, study length 90 weeks): 0.576 mg/kg/day
- TD50 (rat, strain Wistar, males, in drinking water, site: kidney, lesion: one or several types, types not named, dosed 90 weeks, study length 90 weeks): 4.93 mg/kg/day
- TD50 (rat, strain Wistar, males, in drinking water, site: lung, lesion: one or several types, types not named, dosed 90 weeks, study length 90 weeks): 1.59 mg/kg/day
- TD50 (rat, strain Wistar, males, in drinking water, site: mammary gland, lesion: adenocarcinoma, dosed 90 weeks, study length 90 weeks): 4.14 mg/kg/day

SMILES: COc1cc(N)ccc1N=Nc1ccccc1
- carcinogen call (mouse, strain B6C3F1, females, in feed, site: liver, lesion: one or several types, types not named, dosed 56 weeks, study length 56 weeks): negative (inactive)
- carcinogen call (mouse, strain B6C3F1, males, in feed, site: liver, lesion: one or several types, types not named, dosed 56 weeks, study length 56 weeks): negative (inactive)

SMILES: CN(C)CCN(Cc1cccs1)c1ccccn1
- TD50 (hamster, strain Syrian Golden, males, by gavage, site: liver, lesion: neoplastic nodule, dosed 58 weeks, study length 61 weeks): 150 mg/kg/day
- TD50 (rat, strain Fischer 344, females, in feed, site: liver, lesion: hepatocellular carcinoma, dosed 110 weeks, study length 133 weeks): 61.6 mg/kg/day
- TD50 (rat, strain Fischer 344, females, in feed, site: liver, lesion: neoplastic nodule, dosed 110 weeks, study length 133 weeks): 11.8 mg/kg/day
- TD50 (rat, strain Fischer 344, females, in feed, site: liver, lesion: several types, types named in the paper, dosed 110 weeks, study length 133 weeks): 7.65 mg/kg/day
- carcinogen call (rat, strain Fischer 344, males, in feed, site: liver, lesion: basophil adenoma, dosed 73 weeks, study length 73 weeks): positive
- TD50 (rat, strain Fischer 344, males, in feed, site: liver, lesion: cholangiocarcinoma, dosed 110 weeks, study length 133 weeks): 400 mg/kg/day
- carcinogen call (rat, strain Fischer 344, males, in feed, site: liver, lesion: eosinophilic adenoma, dosed 73 weeks, study length 73 weeks): positive
- TD50 (rat, strain Fischer 344, males, in feed, site: liver, lesion: hepatocellular carcinoma, solid, dosed 73 weeks, study length 73 weeks): 26.4 mg/kg/day
- TD50 (rat, strain Fischer 344, males, in feed, site: liver, lesion: hepatocellular carcinoma, trabecular, dosed 73 weeks, study length 73 weeks): 26.4 mg/kg/day
- TD50 (rat, strain Fischer 344, males, in feed, site: liver, lesion: hepatocellular carcinoma, dosed 73 weeks, study length 73 weeks): 14.7 mg/kg/day
- TD50 (rat, strain Fischer 344, males, in feed, site: liver, lesion: hepatocellular carcinoma, dosed 110 weeks, study length 133 weeks): 77 mg/kg/day
- TD50 (rat, strain Fischer 344, males, in feed, site: liver, lesion: neoplastic nodule, dosed 110 weeks, study length 133 weeks): 11.1 mg/kg/day
- TD50 (rat, strain Fischer 344, males, in feed, site: liver, lesion: several types, types named in the paper, dosed 110 weeks, study length 133 weeks): 7.7 mg/kg/day

SMILES: CC(CO)OC(C)CO (configuration not stated) (tested in a mixture with another compound)
- carcinogen call (mouse, strain B6C3F1, females, in drinking water, site: any site (literature study), lesion: several types, types named in the paper, dosed 104 weeks, study length 104 weeks): negative (inactive)
- TD50 (mouse, strain B6C3F1, females, in drinking water, site: lung, lesion: alveolar/bronchiolar adenoma + alveolar/bronchiolar carcinoma, dosed 104 weeks, study length 104 weeks): 31800 mg/kg/day
- TD50 (mouse, strain B6C3F1, males, in drinking water, site: any site (literature study), lesion: several types, types named in the paper, dosed 104 weeks, study length 104 weeks): 24500 mg/kg/day (inactive)
- TD50 (mouse, strain B6C3F1, males, in drinking water, site: lung, lesion: alveolar/bronchiolar adenoma + alveolar/bronchiolar carcinoma, dosed 104 weeks, study length 104 weeks): 18100 mg/kg/day
- carcinogen call (rat, strain Fischer 344, females, in drinking water, site: any site (literature study), lesion: several types, types named in the paper, dosed 104 weeks, study length 104 weeks): negative (inactive)
- TD50 (rat, strain Fischer 344, males, in drinking water, site: any site (literature study), lesion: several types, types named in the paper, dosed 104 weeks, study length 102 weeks): 274 mg/kg/day (inactive)
- TD50 (rat, strain Fischer 344, males, in drinking water, site: liver, lesion: hepatocellular adenoma + hepatoblastoma + hepatocellular carcinoma, dosed 104 weeks, study length 102 weeks): 68200 mg/kg/day

SMILES: N[C@@H](CCC(=O)NNc1ccc(C(=O)O)cc1)C(=O)O
- TD50 (mouse, strain Swiss albino, females, by gavage, site: liver, lesion: several types, types named in the paper, dosed 52 weeks, study length 133 weeks): 41400 mg/kg/day
- TD50 (mouse, strain Swiss albino, males, by gavage, site: lung, lesion: several types, types named in the paper, dosed 52 weeks, study length 133 weeks): 250 mg/kg/day
- TD50 (mouse, strain Swiss albino, males, by gavage, site: subcutaneous tissue, lesion: fibrosarcoma, dosed 52 weeks, study length 133 weeks): 277 mg/kg/day

SMILES: CO[C@H]1[C@@H](O)[C@@H](CO)OC(OC2C3CO[C@H]2[C@H](O)C(C)O3)[C@@H]1O (some centres not stated)
- carcinogen call (mouse, strain B6C3F1, females, in feed, site: any site (literature study), lesion: several types, types named in the paper, dosed 103 weeks, study length 105 weeks): negative (inactive)
- TD50 (mouse, strain B6C3F1, males, in feed, site: any site (literature study), lesion: several types, types named in the paper, dosed 103 weeks, study length 105 weeks): 54900 mg/kg/day
- TD50 (mouse, strain B6C3F1, males, in feed, site: liver, lesion: hepatocellular adenoma + hepatocellular carcinoma + neoplastic nodule, dosed 103 weeks, study length 105 weeks): 33100 mg/kg/day
- TD50 (mouse, strain B6C3F1, males, in feed, site: liver, lesion: hepatocellular adenoma, dosed 103 weeks, study length 105 weeks): 18800 mg/kg/day (inactive)
- TD50 (mouse, strain B6C3F1, males, in feed, site: lung, lesion: alveolar/bronchiolar adenoma + alveolar/bronchiolar carcinoma, dosed 103 weeks, study length 105 weeks): 102000 mg/kg/day
- TD50 (rat, strain Fischer 344, females, in feed, site: adrenal gland, lesion: cortical adenoma, dosed 103 weeks, study length 105 weeks): 25800 mg/kg/day (inactive)
- TD50 (rat, strain Fischer 344, males, in feed, site: any site (literature study), lesion: several types, types named in the paper, dosed 103 weeks, study length 105 weeks): 39300 mg/kg/day (inactive)
- TD50 (rat, strain Fischer 344, males, in feed, site: liver, lesion: hepatocellular adenoma + hepatocellular carcinoma + neoplastic nodule, dosed 103 weeks, study length 105 weeks): 25900 mg/kg/day

SMILES: CC(=O)Nc1nc(NC(C)=O)nc(-c2ccc([N+](=O)[O-])o2)n1
- TD50 (rat, strain Sprague-Dawley, females, in feed, site: any site (literature study), lesion: several types, types named in the paper, dosed 46 weeks, study length 66 weeks): 12.8 mg/kg/day
- TD50 (rat, strain Sprague-Dawley, females, in feed, site: mammary gland, lesion: adenocarcinoma, dosed 46 weeks, study length 66 weeks): 29 mg/kg/day
- TD50 (rat, strain Sprague-Dawley, females, in feed, site: mammary gland, lesion: several types, types named in the paper, dosed 46 weeks, study length 66 weeks): 14.1 mg/kg/day

From PubChem BioAssay AID1745844 (Carcinogenic Potency Database (CPDB), 2022)
